Laboratory results as given in patent US8461328B2, “Tricyclic heterocyclic compounds, compositions and methods of use thereof” (Genentech, Inc., priority 2010, dated 2013).

How the values were obtained:
Type in all cases: biochemical
[1] = molecular target: T1, JAK3 (Homo sapiens, UniProt P52333); experiment: JAK3 inhibition (Table 4); details: read-out: JAK3 Ki
T1 construct: made in house; host or cells: SF9 insect cells (baculovirus)

[2] = molecular target: T2, JAK2 (Homo sapiens, UniProt O60674); experiment: JAK2 inhibition (Table 4); details: read-out: JAK2 Ki
T2 construct: made in house; host or cells: SF9 insect cells (baculovirus)
T2 sequence (O60674 812-1132): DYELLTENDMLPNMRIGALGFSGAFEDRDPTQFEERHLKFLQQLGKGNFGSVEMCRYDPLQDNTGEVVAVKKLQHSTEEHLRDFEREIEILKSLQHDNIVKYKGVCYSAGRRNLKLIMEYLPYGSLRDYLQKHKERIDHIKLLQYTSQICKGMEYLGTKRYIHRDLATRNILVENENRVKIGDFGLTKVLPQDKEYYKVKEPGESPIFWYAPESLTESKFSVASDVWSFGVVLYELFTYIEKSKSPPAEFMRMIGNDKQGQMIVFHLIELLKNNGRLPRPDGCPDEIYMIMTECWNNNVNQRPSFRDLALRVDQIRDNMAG

[3] = molecular target: T3, TYK2 (Homo sapiens, UniProt P29597); experiment: TYK2 inhibition (Table 4)
T3 construct: made in house; host or cells: SF9 insect cells (baculovirus)
T3 sequence (P29597 873-1187): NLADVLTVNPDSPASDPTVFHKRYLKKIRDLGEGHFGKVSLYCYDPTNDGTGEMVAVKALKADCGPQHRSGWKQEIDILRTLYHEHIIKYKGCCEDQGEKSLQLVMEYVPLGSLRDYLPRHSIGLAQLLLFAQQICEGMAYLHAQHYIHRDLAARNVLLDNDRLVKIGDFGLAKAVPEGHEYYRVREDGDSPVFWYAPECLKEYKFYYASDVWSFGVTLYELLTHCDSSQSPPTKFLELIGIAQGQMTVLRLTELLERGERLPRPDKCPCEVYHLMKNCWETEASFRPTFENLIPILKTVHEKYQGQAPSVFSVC

[4] = molecular target: T4, JAK1 (Homo sapiens, UniProt P23458); experiment: JAK1 inhibition (Table 4); details: read-out: JAK1 Ki
T4 construct: made in house; host or cells: SF9 insect cells (baculovirus)
T4 sequence (P23458 852-1154): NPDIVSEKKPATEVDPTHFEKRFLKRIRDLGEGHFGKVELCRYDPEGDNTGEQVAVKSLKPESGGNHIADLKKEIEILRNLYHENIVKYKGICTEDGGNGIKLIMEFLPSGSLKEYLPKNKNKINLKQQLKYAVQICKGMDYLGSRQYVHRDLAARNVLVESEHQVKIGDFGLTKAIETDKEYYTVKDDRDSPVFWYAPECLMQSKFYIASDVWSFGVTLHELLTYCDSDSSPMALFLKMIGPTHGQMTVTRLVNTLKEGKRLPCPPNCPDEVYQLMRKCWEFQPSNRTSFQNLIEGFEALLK

T1 sequence (P52333 783-1124): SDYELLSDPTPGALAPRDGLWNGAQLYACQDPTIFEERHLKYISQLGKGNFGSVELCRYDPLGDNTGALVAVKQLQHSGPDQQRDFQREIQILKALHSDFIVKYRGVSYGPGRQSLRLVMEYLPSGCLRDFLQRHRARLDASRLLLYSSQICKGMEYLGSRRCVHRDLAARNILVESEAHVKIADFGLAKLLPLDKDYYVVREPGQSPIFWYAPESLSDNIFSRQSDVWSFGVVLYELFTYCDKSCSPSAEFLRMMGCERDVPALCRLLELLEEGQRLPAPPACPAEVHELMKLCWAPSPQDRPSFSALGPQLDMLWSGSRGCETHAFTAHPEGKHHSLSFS

Row | Compound | Ki [1] [µM] | Ki [2] [µM] | Ki [3] [µM] | Ki [4] [µM]
1 | CC(C)c1nc2cnc3[nH]ccc3c2n1C1CCN(CCC#N)CC1 [Example 281, 3-[4-(2-Isopropyl-6H-1,3,5,6-tetraaza-as-indacen-1-yl)-piperidin-1-yl]-propionitrile] | 0.0163 | 0.0251 | 0.171 | 0.00749
2 | C[C@@H](O)c1nc2cnc3[nH]ccc3c2n1[C@@H]1CCN(S(C)(=O)=O)C1 [Example 686, (R)-1-[1-((R)-1-Methanesulfonyl-pyrrolidin-3-yl)-1,6-dihydro-1,2,3,5,6-tetraaza-as-indacen-2-yl]-ethanol] | 0.0153 | 0.027 | 0.00417 | 0.0474
3 | O=C(CN1CCCC1=O)N1CCC(n2cnc3cnc4[nH]ccc4c32)CC1 [Example 440, 1-{2-Oxo-2-[4-(6H-1,3,5,6-tetraaza-as-indacen-1-yl)-piperidin-1-yl]-ethyl}-pyrrolidin-2-one] | 0.844 | 0.115 | 0.713 | 0.0432
4 | O=C(NC1CCC(n2cnc3cnc4[nH]ccc4c32)CC1)c1cccnc1 (stereo not drawn) [Example 884, N-[4-(6H-1,3,5,6-Tetraaza-as-indacen-1-yl)-cyclohexyl]-nicotinamide] | 0.0863 | 0.00639 | 0.044 | 0.00517
5 | CC1CC1COCc1nc2cnc3[nH]ccc3c2n1C1CCN(CCC#N)CC1 (stereo not drawn) [Example 841, 3-{4-[2-(2-Methyl-cyclopropylmethoxymethyl)-6H-1,3,5,6-tetraaza-as-indacen-1-yl]-piperidin-1-yl}-propionitrile] | 0.147 | 0.109 | 0.771 | 0.0665
6 | COC(=O)N1CCCC(n2c([C@@H](C)O)nc3cnc4[nH]ccc4c32)C1 (stereo partly drawn) [Example 670, (R)-3-[2-((R)-1-Hydroxy-ethyl)-6H-1,2,3,5,6-tetraaza-as-indacen-1-yl]-piperidine-1-carboxylic acid methyl ester] | 2.17 | 1.75 | 1.52 | 0.397
7 | Cc1cc(CN2CCC(n3c([C@@H](C)O)nc4cnc5[nH]ccc5c43)CC2)n(C)n1 [Example 821, (R)-1-{1-[1-(2,5-Dimethyl-2H-pyrazol-3-ylmethyl)-piperidin-4-yl]-1,6-dihydro-1,3,5,6-tetraaza-as-indacen-2-yl}-ethanol] | 0.0553 | 0.125 | 0.473 | 0.0177
8 | C[C@@H](O)c1nc2cnc3[nH]ccc3c2n1C1CCC(CS(C)(=O)=O)CC1 (mixture of isomers) [Example 649, (R)-1-[1-(4-Methanesulfonylmethyl-cyclohexyl)-1,6-dihydro-1,2,3,5,6-tetraaza-as-indacen-2-yl]-ethanol] | 0.0686 | 0.0386 | 0.0384 | 0.00482
9 | CCC(COC)n1cnc2cnc3[nH]ccc3c21 (racemic) [Example 419, 1-(1-Methoxymethyl-propyl)-1,6-dihydro-1,3,5,6-tetraaza-as-indacene] | 0.16 | 0.198 | 0.812 | 0.144
10 | CN(C)C(=O)CCc1nc2cnc3[nH]ccc3c2n1C1CCCCC1 [Example 803, 3-(1-Cyclohexyl-1,6-dihydro-1,3,5,6-tetraaza-as-indacen-2-yl)-N,N-dimethyl-propionamide] | 0.0257 | 0.044 | 0.0768 | 0.0161
11 | O=C([C@H]1CC[C@H](n2nnc3cnc4[nH]ccc4c32)CC1)N1CCOCC1 [Example 246, Morpholin-4-yl-[4-(6H-1,2,3,5,6-pentaaza-as-indacen-1-yl)-cyclohexyl]-methanone] | 0.652 | 0.183 | 1.62 | 0.164
12 | O=C(Cc1nc2cnc3[nH]ccc3c2n1C1CCCOC1)N1CC(F)(F)C1 (racemic) [Example 971, 1-(3,3-Difluoro-azetidin-1-yl)-2-[1-(tetrahydro-pyran-3-yl)-1,6-dihydro-1,3,5,6-tetraaza-as-indacen-2-yl]-ethanone] | 0.352 | 0.564 | 0.799 | 0.114
13 | C[C@@H](O)c1nc2cnc3[nH]ccc3c2n1[C@H]1CCNC1 [Example 926, (R)-1-((S)-1-Pyrrolidin-3-yl-1,6-dihydro-1,3,5,6-tetraaza-as-indacen-2-yl)-ethanol] | 1.15 | 2.47 | 1.6 | 0.0352
14 | CCOC(=O)N1CCC[C@@H](n2c([C@@H](C)O)nc3cnc4[nH]ccc4c32)C1 [Example 800, (R)-3-[2-((R)-1-Hydroxy-ethyl)-6H-1,3,5,6-tetraaza-as-indacen-1-yl]-piperidine-1-carboxylic acid ethyl ester] | 1.42 | 1.46 | 1.09 | 0.163
15 | CC1CNCCC1n1cnc2cnc3[nH]ccc3c21 (racemic) [Example 306, 1-(3-Methyl-piperidin-4-yl)-1,6-dihydro-1,3,5,6-tetraaza-as-indacene] | 0.468 | 0.156 | 0.449 | 0.0349
16 | C[C@H](O)c1nc2cnc3[nH]ccc3c2n1C1CCCOC1 (single isomer, unassigned) [Example 461] | 1.18 | 1.39 | 1.58 | 0.354
17 | CS(=O)(=O)NCCc1nc2cnc3[nH]ccc3c2n1C1CCN(CCC#N)CC1 [Example 118, N-(2-{1-[1-(2-Cyano-ethyl)-piperidin-4-yl]-1,6-dihydro-1,2,3,5,6-tetraaza-as-indacen-2-yl}-ethyl)-methanesulfonamide] | 0.0236 | 0.012 | 0.0631 | 0.00194
18 | CC(C)CC(=O)NC1CCC(n2nnc3cnc4[nH]ccc4c32)CC1 (stereo not drawn) [Example 883, 3-Methyl-N-[4-(6H-1,2,3,5,6-pentaaza-as-indacen-1-yl)-cyclohexyl]-butyramide] | 0.0893 | 0.0158 | 0.244 | 0.00461
19 | O=C(Cc1nc2cnc3[nH]ccc3c2n1C1CCNCC1)N1CCS(=O)(=O)CC1 [Example 262, 1-(1,1-Dioxo-1lambda*6*-thiomorpholin-4-yl)-2-(1-piperidin-4-yl-1,6-dihydro-1,3,5,6-tetraaza-as-indacen-2-yl)-ethanone] | 0.0965 | 0.663 | 0.165 | 0.0212
20 | COC(=O)CC(c1cccnc1)N1CCC(n2cnc3cnc4[nH]ccc4c32)CC1 (racemic) [Example 126, 3-pyridin-3-yl-3-[4-(6H-1,2,3,5,6-tetraaza-as-indacen-1-yl)-piperidin-1-yl]-propionic acid methyl ester] | 0.418 | 0.0152 | 0.193 | 0.0155
21 | Cc1nc2cnc3[nH]ccc3c2n1C1CCC(NCCC#N)C1 (racemic) [Example 627, Racemic trans 3-[3-(2-methyl-6H-1,2,3,5,6-tetraaza-as-indacen-1-yl)-cyclopentylamino]-propionitrile] | 0.014 | 0.00591 | 0.0127 | 0.00136
22 | C[C@@H](O)c1nc2cnc3[nH]ccc3c2n1[C@H]1CC[C@@H](N2CCC(C#N)CC2)CC1 (relative stereo) [Example 611, Cis 1-{4-[2-(1-hydroxy-ethyl)-6H-1,2,3,5,6-tetraaza-as-indacen-1-yl]-cyclohexyl}-piperidine-4-carbonitrile] | 0.139 | 0.142 | 0.0496 | 0.00689
23 | CCN1CCC(n2c(CCNS(C)(=O)=O)nc3cnc4[nH]ccc4c32)C(F)(F)C1 (racemic) [Example 804, N-{2-[1-(1-Ethyl-3,3-difluoro-piperidin-4-yl)-1,6-dihydro-1,3,5,6-tetraaza-as-indacen-2-yl]-ethyl}-methanesulfonamide] | 0.0136 | 0.0252 | 0.172 | 0.00297
24 | CN(C(=O)Cc1nc2cnc3[nH]ccc3c2n1C1CCN(Cc2ccccc2)CC1)C1CCCC1 [Example 101, 2-[1-(1-Benzyl-piperidin-4-yl)-1,6-dihydro-1,3,5,6-tetraaza-as-indacen-2-yl]-N-cyclopentyl-N-methyl-acetamide] | 0.0277 | 0.194 | 3.23 | 0.041
25 | COCC(=O)NCCc1nc2cnc3[nH]ccc3c2n1C1CCCOC1 (racemic) [Example 860, 2-Methoxy-N-{2-[1-(tetrahydro-pyran-3-yl)-1,6-dihydro-1,3,5,6-tetraaza-as-indacen-2-yl]-ethyl}-acetamide] | 0.561 | 0.296 | 0.806 | 0.0202
26 | C[C@@H](O)c1nc2cnc3[nH]ccc3c2n1[C@@H]1CCCN(C(=O)C2CCCC2)C1 [Example 788, Cyclopentyl-{(R)-3-[2-((R)-1-hydroxy-ethyl)-6H-1,3,5,6-tetraaza-as-indacen-1-yl]-piperidin-1-yl}-methanone] | 0.844 | 0.792 | 0.716 | 0.0671
27 | OC(c1nc2cnc3[nH]ccc3c2n1C1CCCCC1)C1CC1 (racemic) [Example 940, (1-Cyclohexyl-1,6-dihydro-1,3,5,6-tetraaza-as-indacen-2-yl)-cyclopropyl-methanol] | 0.0255 | 0.0313 | 0.00891 | 0.00096
